Structures can show the parent of a compound that is named as a salt.
Experiments:
[1] = target: T1, recombinant human adrenergic beta 1 receptors (Homo sapiens, UniProt P08588); test: Adrenergic β1 selectivity assay, inhibition of [125I]-Iodocyanopindolol binding; conditions: membranes, [125I]-Iodocyanopindolol; read-out: β1 bind pIC50 (converted)
T1 construct: purchased Euroscreen
Description: Membranes containing recombinant human adrenergic beta 1 receptors were obtained from Euroscreen. These were diluted in Assay Buffer (50 mM HEPES, 1 mM EDTA, 120 mM NaCl, 0.1% gelatin, pH 7.4) to provide a final concentration of membranes that gave a clear window between maximum and minimum specific binding.
Assays were performed in U-bottomed 96-well polypropylene plates. […] Membranes were then added to achieve a final volume of 100 μL. The plates were incubated for 2 hours at room temperature and then filtered onto PEI coated GF/B filter plates, pre-soaked for 1 hour in Assay Buffer, using a 96-well plate Tomtec cell harvester. Five washes with 250 μL wash buffer (50 mM HEPES, 1 mM EDTA, 120 mM NaCl, pH 7.4) were performed at 4° C. to remove unbound radioactivity. The plates were dried then sealed from underneath using Packard plate sealers and MicroScint-O (50 μL) was added to each well. The plates were sealed (TopSeal A) and filter-bound radioactivity was measured with a scintillation counter (TopCount, Packard BioScience) using a 3-minute counting protocol.
Total specific binding (B0) was determined by subtracting the mean NSB from the mean maximum binding. NSB values were also subtracted from values from all other wells.

β2 receptor = target: T2, β2 receptor (Homo sapiens, UniProt P07550); test: Adrenergic β2 mediated cAMP production in H292 cells (AlphaScreen cAMP detection); type: cell-based; conditions: for EC50: cAMP, test compounds incubated 10 minutes, 300 μM rolipram; for Intrinsic Activity: fraction relative to the maximum activity determined for formoterol, 10 minutes incubation
T2 construct: endogenous in cells; host or cells: H292 cells
T2 sequence (P07550 whole entry): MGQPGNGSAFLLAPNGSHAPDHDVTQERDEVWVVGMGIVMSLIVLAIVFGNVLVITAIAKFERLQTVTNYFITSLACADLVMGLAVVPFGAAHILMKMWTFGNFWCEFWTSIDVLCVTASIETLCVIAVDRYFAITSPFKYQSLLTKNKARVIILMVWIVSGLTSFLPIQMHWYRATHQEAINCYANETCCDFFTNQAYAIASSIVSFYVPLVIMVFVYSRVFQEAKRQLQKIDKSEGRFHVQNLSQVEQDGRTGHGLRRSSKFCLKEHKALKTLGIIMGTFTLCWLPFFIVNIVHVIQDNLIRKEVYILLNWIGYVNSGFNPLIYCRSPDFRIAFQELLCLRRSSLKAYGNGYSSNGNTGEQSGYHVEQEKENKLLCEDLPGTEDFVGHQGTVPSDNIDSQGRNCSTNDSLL
Description: H292 cells were grown in RPMI (Roswell Park Memorial Institute) medium containing, 10% (v/v) FBS (foetal bovine serum) and 2 mM L-glutamine. Cells were grown in 225 cm2 flasks containing 25 mL media in a humidified incubator at 37° C., 5% CO2. Cells were harvested from the flask and passaged at a 1 in 10 dilution once per week.
The media from flasks containing H292 cells was removed, rinsed with 10 mL PBS (phosphate buffered saline) and replaced with 10 mL Accutase™ cell detachment solution. Flasks were incubated for 15 minutes in a humidified incubator at 37° C., 5% CO2. The cell suspension was counted and the cells re-suspended in RPMI media (containing 10% (v/v) FBS and 2 mM L-glutamine) at 0.05×10^6 cells per mL. 5000 cells in 100 μL were added to each well of a tissue-culture-treated 96-well plate and the cells incubated overnight in a humidified incubator at 37° C., 5% CO2. The culture media was removed, washed twice with 100 μL assay buffer and replaced with 50 μL assay buffer. Cells were rested at room temperature for 20 minutes after which time 25 μL of rolipram (1.2 mM made up in assay buffer containing 2.4% (v/v) dimethylsulphoxide) was added. Cells were incubated with rolipram for 10 minutes after which time test compounds (made up as ×4 concentrated stocks in assay buffer containing 4% (v/v) dimethylsulphoxide) were added and the cells were incubated for 10 minutes at room temperature. Final rolipram concentration in the assay was 300 μM and final vehicle concentration was 1.6% (v/v) dimethylsulphoxide. The reaction was stopped by removing supernatants, washing once with 100 μL assay buffer and replacing with 50 μL lysis buffer. The cell monolayer was frozen at −80° C. for 30 minutes (or overnight).
The concentration of cAMP (cyclic adenosine monophosphate) in the cell lysate was determined using the AlphaScreen™ methodology. The frozen cell plate was thawed for 20 minutes on a plate shaker then 10 μL of the cell lysate was transferred to a 96-well white plate. 40 μL of mixed AlphaScreen™ detection beads (containing equal volumes of donor beads (pre-incubated with biotinylated cAMP in the dark for 30 minutes) and acceptor beads), was added to each well and the plate incubated at room temperature for 10 hours in the dark. The AlphaScreen™ signal was measured using an EnVision spectrophotometer (Perkin-Elmer Inc.) with the recommended manufacturer's settings. cAMP concentrations were determined by reference to a calibration curve determined in the same experiment using standard cAMP concentrations (made up in lysis buffer in a 96-well tissue-culture-treated plate and frozen/thawed alongside the test samples) and detected using the same protocol. Concentration response curves for agonists were constructed to determine both the pEC50 and Intrinsic Activity.

[2] = target: T3, recombinant human Dopamine Subtype D2s receptors (Homo sapiens, UniProt P14416); test: Dopamine D2 selectivity assay, inhibition of [3H]-spiperone binding; conditions: membranes, [3H]-spiperone 0.16 nM; read-out: D2 bind pIC50 (converted)
T3 construct: purchased Perkin Elmer
T3 sequence (P14416 1-414 isoform P14416-2): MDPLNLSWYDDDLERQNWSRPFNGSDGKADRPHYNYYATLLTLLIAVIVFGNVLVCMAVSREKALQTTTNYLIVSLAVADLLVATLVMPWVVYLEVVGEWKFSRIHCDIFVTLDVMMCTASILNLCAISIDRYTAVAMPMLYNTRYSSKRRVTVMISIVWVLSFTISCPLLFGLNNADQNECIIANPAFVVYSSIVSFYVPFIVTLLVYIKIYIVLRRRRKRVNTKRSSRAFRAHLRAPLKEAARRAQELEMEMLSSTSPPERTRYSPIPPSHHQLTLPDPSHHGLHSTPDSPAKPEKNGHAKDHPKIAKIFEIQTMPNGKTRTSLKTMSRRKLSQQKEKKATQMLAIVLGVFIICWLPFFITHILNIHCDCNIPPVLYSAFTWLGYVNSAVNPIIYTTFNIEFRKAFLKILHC

T1 sequence (P08588 whole entry): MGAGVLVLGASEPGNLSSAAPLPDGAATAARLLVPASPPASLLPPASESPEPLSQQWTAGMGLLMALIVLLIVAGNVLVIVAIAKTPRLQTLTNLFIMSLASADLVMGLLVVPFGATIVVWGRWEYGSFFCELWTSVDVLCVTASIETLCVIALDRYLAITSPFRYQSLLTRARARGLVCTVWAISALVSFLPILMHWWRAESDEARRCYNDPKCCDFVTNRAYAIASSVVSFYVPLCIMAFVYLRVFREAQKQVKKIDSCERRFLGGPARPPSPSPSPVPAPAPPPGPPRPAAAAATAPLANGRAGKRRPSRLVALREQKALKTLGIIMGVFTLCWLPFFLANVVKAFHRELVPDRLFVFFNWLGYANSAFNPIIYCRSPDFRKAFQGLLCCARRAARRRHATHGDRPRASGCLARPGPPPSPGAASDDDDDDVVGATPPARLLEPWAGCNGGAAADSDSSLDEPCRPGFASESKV

O=c1[nH]c2c(O)ccc([C@@H](O)CNCCCS(=O)(=O)CCOCCc3cccc4ccccc34)c2s1 [Example 2, 4-Hydroxy-7-((1R)-1-hydroxy-2-{[3-({2-[2-(1-naphthyl)ethoxy]ethyl}sulfonyl)propyl]-amino}ethyl)-1,3-benzothiazol-2(3H)-one trifluoroacetate]
IC50 [1]: 0.0158 µM | EC50 (β2 receptor): 0.000158 µM | Intrinsic Activity (β2 receptor): 1.0

Cl.O=c1[nH]c2c(O)ccc([C@@H](O)CNCCSCCOCCc3cccc4ccccc34)c2s1 [Example 4, 4-Hydroxy-7-((1R)-1-hydroxy-2-{[2-({2-[2-(1-naphthyl)ethoxy]ethyl}thio)ethyl]-amino}ethyl)-1,3-benzothiazol-2(3H)-one hydrochloride]
IC50 [1]: 0.126 µM | EC50 (β2 receptor): 0.0001 µM | Intrinsic Activity (β2 receptor): 0.9 | IC50 [2]: 0.794 µM

From patent US20090221653A1, “7-(2-amino-1-hydroxy-ethyl)-4-hydroxybenzothiazol-2(3H)-one-derivatives as beta2 adrenoreceptor agonists” (AstraZeneca AB, priority 2005, published 2009)
